# In ChEMBL document CHEMBL3301361, “Experimental in vitro DMPK and physicochemical data on a set of publicly disclosed compounds”:
# Test: physchem
# Settings: octan-1-ol/water, pH 7.4
row,SMILES,logD
1,Oc1cc(Cl)cc(Cl)c1,3.58
2,c1ccc(-c2ccc(C3CN4CCC3CC4)cc2)cc1 (stereo unspecified),1.76
3,CCN(CC)C(=O)N[C@H]1C[C@@H]2c3cccc4[nH]cc(c34)C[C@H]2N(C)C1 [TERGURIDE],2.73
4,CCc1cc2c(s1)-n1c(C)nnc1CN=C2c1ccccc1Cl [ETIZOLAM],2.52
5,N#Cc1c(-c2ccccc2)nc(SCCc2ccccc2)[nH]c1=O,1.71
6,NC(=O)c1cncc(O[C@H]2C[C@H]3CC[C@@H](C2)N3Cc2ccccc2)n1,1.1
7,Cc1cccc([C@H](C)c2cnc[nH]2)c1C [DEXMEDETOMIDINE],2.79

# Same assay, conditions: octan-1-ol/water, pH 7.4, LogD7.4
row,SMILES,logD
1,NC(Cc1cc(I)c(Oc2ccc(O)c(I)c2)c(I)c1)C(=O)O (stereo unspecified) [RATHYRONINE],0.97
2,CC(O)(C(=O)Nc1ccc(S(=O)(=O)c2cccnc2)cc1)C(F)(F)F (stereo unspecified),2.08
3,O=c1c2ccc(Cl)cc2[nH]c2c(O)nn(Cc3ccsc3)c(=O)c12,1.11
4,C[C@H]1O[C@@H](n2cnc3c(N)nc(OCC4CCC(F)(F)CC4)nc32)[C@H](O)[C@@H]1O,1.72
5,Cc1cc(O)ccc1N1C(=O)c2ccc(O)cc2C1=O,2
6,NC(=O)c1cccnc1Oc1ccccc1,1.13
7,COc1cc(C(=O)Nc2cc(NC(=O)c3cccc(N(C)C)c3)ccc2C)cc(OC)c1OC,2.54
8,Nc1ccc2c(c1)C(=O)C(=O)c1cc(N)ccc1-2,1.72
9,Cc1ccc(-c2ccc(N)nn2)cc1NC(=O)c1ccc(OCc2ccccn2)cc1,2.47
10,COc1ncc(C)cc1-c1cccc2c(N)c(C(=O)NC3CC3)nnc12,3.4
11,CC(=O)[C@@]1(O)CC[C@H]2[C@@H]3C[C@H](C)C4=CC(=O)C=C[C@]4(C)[C@@]3(F)[C@@H](O)C[C@@]21C [FLUOROMETHOLONE],2.65
12,Clc1ccc(C2(c3ccc(-c4cn[nH]c4)cc3)CCNCC2)cc1,1.51
13,COc1cccc(C(COCc2cc(C(F)(F)F)cc(C(F)(F)F)c2)N2CCNCC2)c1 (stereo unspecified),3.1
14,O=C(NC[C@@H](O)CN1CCC(Oc2ccc(Cl)c(Cl)c2)CC1)c1c[nH]nc1C1CC1,3.15
15,CC(C)C(NC(=O)Cn1c(-c2ccc(F)cc2)ncc(N)c1=O)C(=O)C(F)(F)F (stereo unspecified),1.05
16,CCCc1c(OCc2ccc(C(=O)O)cc2)ccc(C(C)=O)c1O,2.1
17,COc1cc(OC)cc(-c2cc3cnc(N)nc3nc2N)c1,2.14
18,CC(=O)NC(C)c1ccc(Nc2ncc3cc(-c4ccncc4)ccc3n2)cc1 (stereo unspecified),3.1
19,CC(C)N(c1nnc(N)s1)C(C)C,1.49
20,NC(N)=Nc1cc(Cl)nc(-c2ccccc2)n1,2.16
21,C[C@H](NC(=O)/C=C/c1ccccc1)c1cccc(N2CCOCC2)c1,3.24
22,COc1ccccc1N1CCN(Cc2c(Br)c(=O)n(-c3ccccc3)n2C)CC1,2.5
23,CCN1CCO[C@@H](CN2CCN(C(=O)Nc3ccc(Cl)c(Cl)c3)CC2)C1,2.68
24,COc1cc2c(Nc3cccc(Cl)c3Cl)c(C(N)=O)cnc2cc1NCCN(C)C,3.41
25,CN(C)CC(O)COc1ccc(Nc2cc(N(CC#N)c3cc(Cl)ccc3Cl)ncn2)cc1 (stereo unspecified),2.1
26,O=c1oc2ccccc2cc1-c1ccccc1,3.22

row,SMILES,logD
1,NC1(C(=O)NC(c2ccccc2)c2ccc(Cl)cc2)CCN(c2ncnc3[nH]ccc23)CC1 (stereo unspecified),4.1
2,C#CCN(c1cc(Nc2ccc(OCC(O)CN(C)C)cc2)ncn1)c1cc(Cl)ccc1Cl (stereo unspecified),2.8
3,C[C@H](CO)Nc1nc(SCc2cccc(F)c2F)nc2nccnc12,3.15
4,Clc1cccc(Nc2ncnc3ccccc23)c1,3.9
5,Cc1cc(N)n(-c2ccccc2)n1,1.25
6,O=C(OCCN1CCCCC1)c1c[nH]c2ccccc12,2
7,Cn1c(N)nc(CCc2ccc3cc[nH]c3c2)cc1=O,2.1
8,Nc1nc(N)c2nc(CO)cnc2n1,-0.45
9,CCC(c1nc2ccsc2c(=O)n1Cc1ccc(C)cc1)N(CCCN)C(=O)c1ccc(C)cc1 (stereo unspecified),1.69
10,C1=CCC(c2ccc3ccccc3c2)CNC1 (stereo unspecified),1.64
11,NS(=O)(=O)c1cc2c(cc1C(F)(F)F)NC(Cc1ccccc1)NS2(=O)=O (stereo unspecified) [BENDROFLUMETHIAZIDE],1.78
12,CCOc1ccc(-c2cnc3n2CCCCC3)cc1,3.01
13,Cc1ccc(NC(=O)c2cccc(N(C)C)c2)cc1NC(=O)c1ccc(OCc2ccccn2)cc1,2.83
14,Cn1sc(NC(=O)c2ccccc2)nc1=O,1.13
15,O=C(O)c1ccc(Nc2ncc(Br)c(Nc3ccccc3)n2)cc1,1.65
16,COc1cc2c(Nc3c(Cl)ccc4c3OCO4)ncnc2cc1OCC1CCN(C)CC1,1.83
17,COc1cc(C(=O)Nc2ccc(Cl)c(-c3nc4ccccc4[nH]3)c2)cc(OC)c1OC,3.83
18,Cn1cc(S(C)(=O)=O)nc1-c1c2c(=O)n(C)c(=O)n(CC3CC3)c2nn1Cc1ccnc2ccc(Cl)cc12,2.64
19,Cc1ccc2c(N)c(C#N)sc2n1,2.23
20,CCCCN1Cc2c(nc3cc(-c4ccco4)nn3c2O)C1=O,0.8
21,CC(C)Oc1cc(OCCc2cccnc2)cc(C(=O)Nc2ccc(C(=O)O)cn2)c1,0.81
22,CC(NC(=O)C1(N)CCN(c2ncnc3[nH]ccc23)CC1)c1ccccn1 (stereo unspecified),1.3
23,O=C(Nc1ccccc1)Nc1ccccc1C(=O)O,-0.12
24,O=[N+]([O-])c1cccc2ccc(C(Cl)(Cl)Cl)nc12,3.7
25,CCCS(=O)(=O)c1ccc(C(CNS(=O)(=O)c2ccc(C(F)(F)F)cc2)N2CCCCCC2)cc1 (stereo unspecified),3.32
26,O=c1[nH]c2c(O)ccc([C@@H](O)CNCCOCCCNCCc3cccc(Cl)c3)c2s1,0.83

row,SMILES,logD
1,CCC(c1nc2ccn(C)c2c(=O)n1Cc1ccccc1)N(CCCN)C(=O)c1ccc(C)cc1 (stereo unspecified),1.8
2,COc1ccc(S(=O)(=O)NCC(c2ccccc2)N2CCCCCC2)cc1 (stereo unspecified),3.13
3,Nc1cccc(C(=O)NCC23CC4CC(CC(C4)C2)C3)c1Cl,3.29
4,O=C1C2=Nc3ccccc3CN2c2ccccc21,2.71
5,CSc1ccc(-c2nc(-c3ccc(F)cc3)c(-c3ccncc3)[nH]2)cc1,2.97
6,Cc1ncc(-c2ccnc(Nc3ccc(C(N)=O)cc3)n2)n1C(C)C,2.39
7,CC(C)C(NC(=O)Cn1c(C2CCCCC2)ncc(NC(=O)OCc2ccccc2)c1=O)C(=O)C(F)(F)F (stereo unspecified),2.87
8,Cc1cc(N)c2cc(NC(=O)CCCCC(=O)Nc3ccc4nc(C)cc(N)c4c3)ccc2n1,0.53
9,c1cnc2cccnc2c1,0.89
10,Cc1cc2n[nH]c(=O)n2c2cc(-c3ccco3)ccc12,2.07
11,CC(C)Cn1c(=O)[nH]c(=O)c2c(C(=O)N3CCC3)c(Cc3ccccc3C(F)(F)F)sc21,3
12,O=C(Nc1cc(C(F)(F)F)cc(C(F)(F)F)c1)c1cnc(Cl)nc1C(F)(F)F,1.8
13,CC(C)Nc1ccc2cnn(-c3cncc(-n4ccc(CC(=O)O)c4)n3)c2c1,1.24
14,O=C1NC(=O)c2cc(OCc3ccccc3)ccc21,3.1
15,O=Cc1ccccc1B(O)O,0.83
16,COC(=O)Nc1cnc(-c2ccc(F)cc2)n(CC(=O)NC(C(=O)C(F)(F)F)C(C)C)c1=O (stereo unspecified),1.82
17,COc1ccc(OC(F)(F)F)cc1CN[C@H]1CCCN[C@H]1c1ccccc1,2.9
18,CCCN1CCN(c2ccc(C(=O)NC3(C(=O)NCC#N)CCCCC3)cc2)CC1 [BALICATIB],1.33
19,Cn1nnc2c(C(N)=O)ncn2c1=O [TEMOZOLOMIDE],-1.08
20,COc1ccc(-n2sc3ccccc3c2=O)cc1,3.02
21,CCc1ccccc1-c1ccc(-c2nc3ccncc3c(O)c2C#N)cc1,3.5
22,CCCSc1ncccc1C(=O)N(C)[C@@H]1[C@@H]2CC3C[C@H]1C[C@@](O)(C3)C2,2.49
23,CC1=NC(C)(c2cccc(-c3cccnc3)c2)N=C1N (stereo unspecified),1.7
24,Brc1cnc(NCc2ccccc2)nc1Nc1cc(C2CC2)n[nH]1,4.11
25,O=C(Nc1ccc(Nc2ccc(NC(=O)c3ccccc3)c3c2C(=O)c2ccccc2C3=O)c2c1C(=O)c1ccccc1C2=O)c1ccccc1,2.63
26,O=[N+]([O-])c1ccc2[nH]c(-c3ccccn3)nc2c1,2.8

row,SMILES,logD
1,Cc1nc(N)c2nc(O)n(Cc3ccccc3)c2n1,2.04
2,CC(Oc1c(Cl)cccc1Cl)C1=NCCN1 (stereo unspecified) [LOFEXIDINE],0.48
3,O=S(=O)(Nc1nccs1)c1cc(Cl)ccc1Cl,1.14
4,CCCSc1c(C(=O)NC2CCCCC2)cnn1-c1ccc(C(=O)O)cc1,0.64
5,CS(=O)(=O)NCCC(NC(=O)C1(N)CCN(c2ncnc3[nH]ccc23)CC1)c1ccc(Cl)cc1 (stereo unspecified),2.2
6,Cc1ncc(-c2nc(Nc3ccc(C(=O)N(C)C)cc3)ncc2F)n1C(C)C,2.77
7,COC(=O)[C@H](Cc1ccc([N+](=O)[O-])cc1)NC(=O)c1cccc2ccccc12,3.58
8,Nc1[nH]nc2cccc(Cl)c12,1.92
9,O=C1c2ccccc2C(=O)N1c1ccc(O)cc1,2
10,COc1cccc(C(=O)NCCCOc2cccc3ccc(N)nc23)c1,2.46
11,CCNc1nc(C#N)nc(Nc2ccccc2)n1,3.11
12,Cc1nc(-c2ccc(C)c(NC(=O)c3ccc(OCc4ccccn4)cc3)c2)c[nH]1,2.97
13,CS(=O)(=O)c1cccc(Nc2nccc(Nc3cccc4ocnc34)n2)c1,2.9
14,COc1ccc(-c2c(C)c3ccc(OC)cc3oc2=O)cc1,3.31
15,Nc1nc2cc3c(cc2s1)CCN(Cc1cccc(F)c1)CC3,3.3
16,COc1ccc(-c2nc3c(NCCCNC(=O)C4CC4)c(Br)cnc3[nH]2)cc1,1.71
17,COc1ncc(-c2cccc3c2C[C@H](NC(=O)c2ccc(OCC(F)(F)F)nc2)CO3)cn1,4.3
18,CC(=O)CCCCn1c(=O)c2c(ncn2C)n(C)c1=O [PENTOXIFYLLINE],0.22
19,c1ccc2c(c1)nnn2-c1ccncc1,1.69
20,Cc1ccc(Cl)c(Nc2ccccc2C(=O)O)c1Cl [MECLOFENAMIC ACID],2.33
21,CCCc1c(OCc2ccc(-c3nn[nH]n3)cc2OC)ccc(C(C)=O)c1O,2.8
22,COc1cccc2[nH]ncc12,2.1
23,CC(=O)O[C@@]12CO[C@@H]1C[C@H](O)[C@@]1(C)C(=O)[C@H](O)C3=C(C)[C@@H](OC(=O)[C@H](O)[C@@H](NC(=O)OC(C)(C)C)c4ccccc4)C[C@@](O)([C@@H](OC(=O)c4ccccc4)[C@H]21)C3(C)C [DOCETAXEL],3.4
24,Cc1ccc(-c2ncc[nH]2)cc1NC(=O)c1ccc(OCc2ccccn2)cc1,3.01
25,CC(=O)NCc1ccc(CN2CCN(c3ccccc3)CC2)cc1,1.78
26,Fc1ccc(CNc2ncc(Br)c(Nc3cc(C4CC4)[nH]n3)n2)cc1,4.28
